Measured values taken from article PMC10516900 (Communications Biology, 2023).
“And” between values parts separate entries of the source, which are not always exact repeats. Equal values may be shown once.

Legend:
[1] = target: cUSP47CD (Caenorhabditis elegans, UniProt Q22240); assay: Ub-AMC enzymatic inhibition assay, cUSP47CD; format: biochemical; design: Residual enzymatic activity, cUSP47CD_IC50(p50429): unit not given here
Procedure: (§1) Enzymes and substrates were diluted in the reaction buffer (20 mM HEPES, pH 7.4, 150 mM NaCl, and 5 mM DTT) to a concentration of 5 μM for the substrate and 0.5 μM for the enzymes. At the indicated time points following the reaction initiation, 10 μL reaction aliquots were taken and the reaction was stopped by adding SDS sampling buffer and analyzed using SDS-PAGE. Then, the 4–15% gradient gel was stained with Coomassie Brilliant Blue R-250. USP enzymatic activity and inhibition assays were measured at room temperature using the cleavage-sensitive fluorogenic substrate Ub-AMC (Boston Biochem, U-550). The deubiquitination assay was performed following the protocol by Ernst et al.[30]. Briefly, enzyme activity assays were performed in assay buffer in 20 mM HEPES (pH 7.4), 100 mM NaCl, and 5 mM DTT) containing cUSP47CD (in 50 nM), hUSP47CD-UBL12 (in 100 nM) or hUSP7CD (in 100 nM) constructs and serial dilutions of Ub-AMC (final 35 μM). The AMC fluorescence emission was monitored at 460 nm (excitation at 380 nm) for 30–60 min using a SpectraMax M3 plate reader (Molecular Devices). […] The data were fitted using GraphPad Prism 7 (GraphPad Inc.). Fluorescence intensity was recorded every 45 s for 90 min. Data are presented as the mean ± SD (n = 3).

[2] = target: T1, hUSP7CD (Homo sapiens, UniProt Q93009); assay: Ub-AMC enzymatic inhibition assay, hUSP7CD; format: biochemical
T1 construct: Swiss Prot entry: Q93009, residues 208–560; His6 (N); made in house; host or cells: E. coli BL21 (DE3) codon plus RIL
T1 sequence (Q93009 208-560): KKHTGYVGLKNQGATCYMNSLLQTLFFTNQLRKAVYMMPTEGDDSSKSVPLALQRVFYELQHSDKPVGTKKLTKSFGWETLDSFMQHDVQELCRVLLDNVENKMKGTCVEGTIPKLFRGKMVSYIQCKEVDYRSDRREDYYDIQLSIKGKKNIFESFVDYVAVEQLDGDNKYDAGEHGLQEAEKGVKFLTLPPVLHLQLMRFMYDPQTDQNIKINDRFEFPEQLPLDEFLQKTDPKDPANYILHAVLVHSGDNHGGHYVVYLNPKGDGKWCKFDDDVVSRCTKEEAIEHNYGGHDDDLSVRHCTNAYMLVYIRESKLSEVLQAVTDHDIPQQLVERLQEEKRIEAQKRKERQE
Procedure: (§2) Enzymes and substrates were diluted in the reaction buffer (20 mM HEPES, pH 7.4, 150 mM NaCl, and 5 mM DTT) to a concentration of 5 μM for the substrate and 0.5 μM for the enzymes. […] USP enzymatic activity and inhibition assays were measured at room temperature using the cleavage-sensitive fluorogenic substrate Ub-AMC (Boston Biochem, U-550). […] The AMC fluorescence emission was monitored at 460 nm (excitation at 380 nm) for 30–60 min using a SpectraMax M3 plate reader (Molecular Devices). […] The data were fitted using GraphPad Prism 7 (GraphPad Inc.). Fluorescence intensity was recorded every 45 s for 90 min. Data are presented as the mean ± SD (n = 3).

[3] = system: cUSP47CD^R309N; assay: Ub-AMC enzymatic inhibition assay, cUSP47CD^R309N; format: biochemical, Caenorhabditis elegans; conditions: FT671 5 μM, Fig. 5d
Procedure: as §1

[4] = system: cUSP47CD^A416NA417H; assay: Ub-AMC enzymatic inhibition assay, cUSP47CD^A416NA417H; format: biochemical, Caenorhabditis elegans; conditions: FT671 5 μM, Fig. 5d
Procedure: as §1

[5] = system: cUSP47CD^R309NA416NA417H; assay: Ub-AMC enzymatic inhibition assay, cUSP47CD^R309NA416NA417H; format: biochemical, Caenorhabditis elegans; conditions: FT671 5 μM, Fig. 5d, compared with the double mutant
Procedure: as §1

[6] = target: T2, hUSP7CD^N460AH461A (Homo sapiens, UniProt Q93009, H461A/N460A); assay: Ub-AMC enzymatic inhibition assay, hUSP7CD^N460AH461A; format: biochemical; conditions: FT671 5 μM, Fig. 5d
T2 construct: Swiss Prot entry: Q93009, residues 208–560; His6 (N); made in house; host or cells: E. coli BL21 (DE3) codon plus RIL
T2 sequence (Q93009 208-560 N460A/H461A): as the sequence (Q93009 208-560) above, with N253A, H254A counted along it
Procedure: as §2

[7] = system: USP7; conditions: cited from earlier work
[8] = system: USP47; conditions: cited from earlier work
[9] = system: multiple myeloma xenograft models; conditions: in vitro and in vivo multiple myeloma xenograft models; cited from earlier work
[10] = target: T3, Flag-USP7 (Homo sapiens, UniProt Q93009); assay: Immunoprecipitation and DUB assay with K48-linked ubiquitin chains, Flag-USP7 from treated HEK293T cells; format: cell-based; conditions: HEK293T cells treated for 2 h, immunoprecipitated Flag-USP7, Fig. 2f
T3 construct: expressed in transfected cells; host or cells: HEK293T
T3 sequence (Q93009 whole entry): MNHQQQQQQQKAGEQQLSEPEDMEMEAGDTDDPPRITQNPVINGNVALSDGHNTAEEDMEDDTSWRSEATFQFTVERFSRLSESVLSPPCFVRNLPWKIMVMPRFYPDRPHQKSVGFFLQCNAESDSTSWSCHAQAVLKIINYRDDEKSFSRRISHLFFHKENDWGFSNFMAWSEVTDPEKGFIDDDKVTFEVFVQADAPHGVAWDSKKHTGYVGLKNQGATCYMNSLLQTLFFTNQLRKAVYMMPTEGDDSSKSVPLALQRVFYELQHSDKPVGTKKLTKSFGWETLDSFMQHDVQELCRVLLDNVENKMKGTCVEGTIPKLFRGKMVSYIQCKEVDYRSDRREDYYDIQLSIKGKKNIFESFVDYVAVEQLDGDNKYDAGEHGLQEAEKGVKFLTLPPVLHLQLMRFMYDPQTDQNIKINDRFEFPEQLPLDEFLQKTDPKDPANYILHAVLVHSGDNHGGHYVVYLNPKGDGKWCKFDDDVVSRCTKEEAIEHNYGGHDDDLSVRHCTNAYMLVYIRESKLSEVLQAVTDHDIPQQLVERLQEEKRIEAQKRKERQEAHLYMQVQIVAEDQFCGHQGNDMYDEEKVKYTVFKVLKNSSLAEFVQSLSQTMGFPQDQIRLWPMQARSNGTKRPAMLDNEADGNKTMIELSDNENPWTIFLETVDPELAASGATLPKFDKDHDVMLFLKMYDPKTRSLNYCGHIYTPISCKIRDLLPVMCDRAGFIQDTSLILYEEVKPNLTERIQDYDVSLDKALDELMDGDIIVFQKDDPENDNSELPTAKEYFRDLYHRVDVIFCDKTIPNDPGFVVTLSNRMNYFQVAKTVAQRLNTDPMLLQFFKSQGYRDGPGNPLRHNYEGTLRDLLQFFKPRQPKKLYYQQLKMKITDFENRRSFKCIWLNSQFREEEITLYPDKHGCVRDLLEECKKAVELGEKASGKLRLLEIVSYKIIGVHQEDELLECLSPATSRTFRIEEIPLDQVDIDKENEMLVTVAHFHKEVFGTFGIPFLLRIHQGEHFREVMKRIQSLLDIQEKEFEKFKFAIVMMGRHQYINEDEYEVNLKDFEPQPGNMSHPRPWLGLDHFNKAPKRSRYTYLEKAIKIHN
Procedure: Fig. 2 Biochemical properties of USP47. a Domain structure of USP47 and the constructs used in this study. b HEK293T cells were transfected with USP Flag-tagged mutants. […] The IC50 values were determined in triplicate and fitted to a four-parameter logistic dose-response curve. Data are expressed as means ± SD.
HEK293T cells transfected with pFlag-CMV-2 vector, pFlag-USP7, or pFlag-USP47 were treated with drugs, as indicated, and lysed by protein lysis buffer (20 mM Tris–Cl, 150 mM NaCl, 1 mM EDTA, 1 mM EGTA, 1% Triton X-100, 2.5 mM sodium pyrophosphate, 50 mM NaF, 5 mM β-glycerophosphate, 1 mM Na3VO4, 1x protease inhibitor, pH 7.5). […] Flag affinity gel was washed 5 times with lysis buffer and the supernatant was removed carefully with a syringe after the last wash step. For elution, Flag agarose was incubated with 3× Flag peptide (Sigma Aldrich) in elution buffer (15 μg of Flag peptide in 50 μl of lysis buffer) for 30 min at 4 °C. The supernatants were collected as immunoprecipitates. […] Samples were analyzed by Western blot and detected with the anti-ubiquitin antibody.

cUSP47CD, sequence (Q22240 entry or part of it): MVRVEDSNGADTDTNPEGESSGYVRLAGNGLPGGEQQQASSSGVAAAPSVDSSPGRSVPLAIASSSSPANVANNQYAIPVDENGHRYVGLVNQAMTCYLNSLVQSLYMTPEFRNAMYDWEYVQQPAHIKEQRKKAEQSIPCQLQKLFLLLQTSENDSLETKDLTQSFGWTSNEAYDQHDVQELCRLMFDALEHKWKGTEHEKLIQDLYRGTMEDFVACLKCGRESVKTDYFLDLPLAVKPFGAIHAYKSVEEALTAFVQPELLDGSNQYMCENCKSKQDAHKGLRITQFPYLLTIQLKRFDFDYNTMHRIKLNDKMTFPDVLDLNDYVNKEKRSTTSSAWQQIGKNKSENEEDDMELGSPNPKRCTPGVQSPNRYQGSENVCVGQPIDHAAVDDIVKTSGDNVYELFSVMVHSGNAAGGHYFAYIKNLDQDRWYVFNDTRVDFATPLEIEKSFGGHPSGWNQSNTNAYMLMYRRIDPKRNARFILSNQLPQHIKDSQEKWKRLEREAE

O=C(C[C@@H](C(F)F)n1ccc(F)n1)N1CCC(O)(Cn2cnc3c(cnn3-c3ccc(F)cc3)c2=O)CC1 [FT671]
Enzyme activity cUSP47CD+FT671 relative to cUSP47CD without FT671 (=100) ([1]; FT671 5 μM, Ub-AMC 35 μM, mean and three replicates, 5 µM): 108.41 and 98.6437 and 106.057 | remaining activity at 5 µM ([1]; FT671 5 μM, Ub-AMC 35 μM, mean and three replicates, read-out: Enzyme activity cUSP47CD+FT671 relative to cUSP47CD without FT671 (=100)): 104% | inhibition of cUSP47CD wild type by FT671 ([1]; FT671 5 μM, Ub-AMC, Fig. 5d): no inhibition | inhibition of USP7 wild type by FT671 ([2]; FT671 5 μM, Ub-AMC, Fig. 5d): complete inhibition | change in activity of cUSP47CD^R309N with FT671 [3]: no change in the activity | reduction in the activity of cUSP47CD^A416NA417H with FT671 [4]: ~40% | inhibition of cUSP47CD^R309NA416NA417H by FT671 [5]: even more inhibition | reduction in the activity of hUSP7CD^N460AH461A in the presence of FT671 [6]: ~ 80% | potency and specificity for USP7 ([7]; recently reported USP7 inhibitors): high potency and specificity only for USP7

CC(=O)c1cc([N+](=O)[O-])c(Sc2cccc(Cl)c2Cl)s1 [P5091, 1-[5-(2,3-dichlorophenylsulfanyl)−4-nitro-2thienl]ethanone]
IC50 ([7]; read-out: IC50 USP7): 4.2 µM | IC50 [8]: 4.3 µM | antitumor efficacy [9]: antitumor efficacy

CS(=O)(=O)c1ccc(NC(=O)c2cc(C#N)c(Sc3c(Cl)cncc3Cl)s2)cc1 [P50429]
IC50 ([1]; Ub-AMC, USP47 50 nM, 10 min at 25 °C, triplicate, mean ± SD): 1.4 ± 0.2 µM | Residual enzymatic activity, cUSP47CD_IC50(p50429) ([1]; inhibitor concentration 0.0244141, three replicates, 0.0244141 µM): 98.3931 and 102.68 | remaining activity at 0.0244141 µM ([1]; inhibitor concentration 0.0244141, three replicates, read-out: Residual enzymatic activity, cUSP47CD_IC50(p50429)): 106% | Residual enzymatic activity, cUSP47CD_IC50(p50429) ([1]; inhibitor concentration 0.0488281, three replicates, 0.0488281 µM): 94.8604 and 95.1269 | remaining activity at 0.0488281 µM ([1]; inhibitor concentration 0.0488281, three replicates, read-out: Residual enzymatic activity, cUSP47CD_IC50(p50429)): 100% | Residual enzymatic activity, cUSP47CD_IC50(p50429) ([1]; inhibitor concentration 0.0976562, three replicates, 0.0976562 µM): 90.0141 and 90.4933 | remaining activity at 0.0976562 µM ([1]; inhibitor concentration 0.0976562, three replicates, read-out: Residual enzymatic activity, cUSP47CD_IC50(p50429)): 86.3% | Residual enzymatic activity, cUSP47CD_IC50(p50429) ([1]; inhibitor concentration 0.195312, three replicates, 0.195312 µM): 70.9575 and 84.4737 | remaining activity at 0.195312 µM ([1]; inhibitor concentration 0.195312, three replicates, read-out: Residual enzymatic activity, cUSP47CD_IC50(p50429)): 90.3% | Residual enzymatic activity, cUSP47CD_IC50(p50429) ([1]; inhibitor concentration 0.390625, three replicates, 0.390625 µM): 71.1433 and 81.3617 | remaining activity at 0.390625 µM ([1]; inhibitor concentration 0.390625, three replicates, read-out: Residual enzymatic activity, cUSP47CD_IC50(p50429)): 83.2% | Residual enzymatic activity, cUSP47CD_IC50(p50429) ([1]; inhibitor concentration 0.78125, three replicates, 0.78125 µM): 64.5756 and 70.9586 | remaining activity at 0.78125 µM ([1]; inhibitor concentration 0.78125, three replicates, read-out: Residual enzymatic activity, cUSP47CD_IC50(p50429)): 71.1% | Residual enzymatic activity, cUSP47CD_IC50(p50429) ([1]; inhibitor concentration 1.5625, three replicates, 1.5625 µM): 47.6458 and 50.9074 | remaining activity at 1.5625 µM ([1]; inhibitor concentration 1.5625, three replicates, read-out: Residual enzymatic activity, cUSP47CD_IC50(p50429)): 52.3% | Residual enzymatic activity, cUSP47CD_IC50(p50429) ([1]; inhibitor concentration 3.125, three replicates, 3.125 µM): 23.3806 and 22.8255 | remaining activity at 3.125 µM ([1]; inhibitor concentration 3.125, three replicates, read-out: Residual enzymatic activity, cUSP47CD_IC50(p50429)): 24.7% | Residual enzymatic activity, cUSP47CD_IC50(p50429) ([1]; inhibitor concentration 6.25, three replicates, 6.25 µM): 13.3082 and 13.4812 | remaining activity at 6.25 µM ([1]; inhibitor concentration 6.25, three replicates, read-out: Residual enzymatic activity, cUSP47CD_IC50(p50429)): 23% | Residual enzymatic activity, cUSP47CD_IC50(p50429) ([1]; inhibitor concentration 12.5, three replicates, 12.5 µM): 11.6652 and 7.474 | remaining activity at 12.5 µM ([1]; inhibitor concentration 12.5, three replicates, read-out: Residual enzymatic activity, cUSP47CD_IC50(p50429)): 11.3% | Residual enzymatic activity, cUSP47CD_IC50(p50429) ([1]; inhibitor concentration 25, three replicates, 25 µM): 6.001 and 6.389 | remaining activity at 25 µM ([1]; inhibitor concentration 25, three replicates, read-out: Residual enzymatic activity, cUSP47CD_IC50(p50429)): 7.06% | Residual enzymatic activity, cUSP47CD_IC50(p50429) ([1]; inhibitor concentration 50 (0–50 μM series), three replicates, 50 µM): 4.2047 and -1.497 and -1.461 | IC50 [2]: 5.3 ± 1 µM | DUB activity on K48-linked ubiquitin chains [10]: inhibited the DUB activity
